The NIST ThermoML archive (doi:10.1016/j.jct.2008.03.011)
± gives the expanded uncertainty stated by the source.

Experiments:
[1] = xn = mol fraction of the nth substance listed; conditions: 101 kPa, Liquid
[2] = refractive index (Na D-line) (dimensionless); xn = mol fraction of the nth substance listed; conditions: 101 kPa, Liquid

CCC(C)=O [butanone] + CCCCCCCC[n+]1ccn(C)c1.F[P-](F)(F)(F)(F)F
x2 = 0
Conditions	mass density, 293.15 K [kg/m3]	mass density, 298.15 K [kg/m3]	mass density, 303.15 K [kg/m3]	refractive index, 293.15 K	refractive index, 298.15 K	refractive index, 303.15 K	speed of sound, 293.15 K [m/s]	speed of sound, 298.15 K [m/s]	speed of sound, 303.15 K [m/s]
[1]	805.6 ± 0.7	799.7 ± 0.7	794.9 ± 0.8	–	–	–	1212 ± 8	1192 ± 7	1163 ± 7
[2]	–	–	–	1.37879 ± 0.0012	1.37618 ± 0.0012	1.37355 ± 0.0012	–	–	–

CCCCCCCC[n+]1ccn(C)c1.F[P-](F)(F)(F)(F)F [1-octyl-3-methylimidazolium hexafluorophosphate] + CCC(C)=O
Conditions	mass density, 293.15 K [kg/m3]	mass density, 298.15 K [kg/m3]	mass density, 303.15 K [kg/m3]	refractive index, 293.15 K	refractive index, 298.15 K	refractive index, 303.15 K	speed of sound, 293.15 K [m/s]	speed of sound, 298.15 K [m/s]	speed of sound, 303.15 K [m/s]
[1], x1 = 0.0475	869.8 ± 0.6	864.3 ± 0.6	859.6 ± 0.7	–	–	–	1243 ± 8	1224 ± 8	1195 ± 7
[1], x1 = 0.0972	923.7 ± 0.6	918.9 ± 0.6	914.1 ± 0.6	–	–	–	1268 ± 8	1249 ± 8	1229 ± 8
[1], x1 = 0.1918	1002 ± 0.5	997.6 ± 0.5	993.2 ± 0.5	–	–	–	1303 ± 8	1286 ± 8	1269 ± 8
[1], x1 = 0.2947	1063.1 ± 0.6	1058.8 ± 0.6	1054.6 ± 0.6	–	–	–	1331 ± 8	1315 ± 8	1300 ± 8
[1], x1 = 0.3949	1107.9 ± 0.7	1103.7 ± 0.7	1099.5 ± 0.7	–	–	–	1352 ± 8	1337 ± 8	1323 ± 8
[1], x1 = 0.4983	1143.6 ± 0.7	1139.4 ± 0.7	1135.3 ± 0.7	–	–	–	1368 ± 8	1354 ± 8	1340 ± 8
[1], x1 = 0.5752	1164.9 ± 0.8	1160.9 ± 0.8	1156.9 ± 0.8	–	–	–	1378 ± 8	1364 ± 8	1351 ± 8
[1], x1 = 0.6815	1189.5 ± 0.9	1185.5 ± 0.9	1181.5 ± 0.8	–	–	–	1389 ± 8	1376 ± 8	1363 ± 8
[1], x1 = 0.7683	1205.8 ± 0.9	1202 ± 0.9	1198.3 ± 0.9	–	–	–	1399 ± 8	1386 ± 8	1372 ± 8
[1], x1 = 0.8315	1216.4 ± 0.9	1212.8 ± 0.9	1209.1 ± 0.9	–	–	–	1406 ± 8	1392 ± 8	1379 ± 8
[1], x1 = 0.9315	1230.9 ± 1	1227.5 ± 1	1223.9 ± 1	–	–	–	1425 ± 9	1410 ± 8	1395 ± 8
[1], x1 = 1	1239.6 ± 1.1	1235.7 ± 1	1231.9 ± 1	–	–	–	1424 ± 9	1408 ± 8	1393 ± 8
[2], x1 = 0.0475	–	–	–	1.38881 ± 0.0012	1.38663 ± 0.0012	1.38505 ± 0.0012	–	–	–
[2], x1 = 0.0972	–	–	–	1.39567 ± 0.0012	1.39445 ± 0.0012	1.39284 ± 0.0012	–	–	–
[2], x1 = 0.1918	–	–	–	1.40468 ± 0.0013	1.40289 ± 0.0013	1.40124 ± 0.0013	–	–	–
[2], x1 = 0.2947	–	–	–	1.41058 ± 0.0013	1.40877 ± 0.0013	1.40709 ± 0.0013	–	–	–
[2], x1 = 0.3949	–	–	–	1.41468 ± 0.0013	1.41302 ± 0.0013	1.41133 ± 0.0013	–	–	–
[2], x1 = 0.4983	–	–	–	1.41774 ± 0.0013	1.41614 ± 0.0013	1.41466 ± 0.0013	–	–	–
[2], x1 = 0.5752	–	–	–	1.41934 ± 0.0013	1.41779 ± 0.0013	1.41645 ± 0.0013	–	–	–
[2], x1 = 0.6815	–	–	–	1.42126 ± 0.0013	1.41979 ± 0.0013	1.41825 ± 0.0013	–	–	–
[2], x1 = 0.7683	–	–	–	1.42239 ± 0.0013	1.42095 ± 0.0013	1.41949 ± 0.0013	–	–	–
[2], x1 = 0.8315	–	–	–	1.42355 ± 0.0013	1.42198 ± 0.0013	1.42051 ± 0.0013	–	–	–
[2], x1 = 0.9315	–	–	–	1.42474 ± 0.0013	1.42337 ± 0.0013	1.42199 ± 0.0013	–	–	–
[2], x1 = 1	–	–	–	1.4244 ± 0.0013	1.42302 ± 0.0013	1.42165 ± 0.0013	–	–	–

C1CCCCC1 [cyclohexane] + CCC(C)=O
x1 = 1
Conditions	refractive index, 293.15 K	refractive index, 298.15 K	refractive index, 303.15 K	speed of sound, 293.15 K [m/s]	speed of sound, 298.15 K [m/s]	speed of sound, 303.15 K [m/s]
[1], Sing-around technique in a fixed-path interferometer	–	–	–	1279 ± 2	1256 ± 2	1219 ± 2
[2], Standard Abbe refractometry	1.42633 ± 0.00031	1.42354 ± 0.00031	1.42073 ± 0.00031	–	–	–

[1], x1 = 1
Conditions	mass density [kg/m3]
293.15 K	778.4 ± 0.5
298.15 K	773.8 ± 0.5
303.15 K	769 ± 0.5
